Measurements as given in ChEMBL document CHEMBL1144732 (Bioorg Med Chem Lett, 2008).

Assays:
Carbonic anhydrase 4 = Carbonic anhydrase 4 (Homo sapiens, UniProt P22748)
Carbonic anhydrase 13 = Carbonic anhydrase 13 (Mus musculus, UniProt Q9D6N1)
[1] = molecular target: Carbonic anhydrase 5B, mitochondrial (Homo sapiens, UniProt Q9Y2D0)
[2] = molecular target: Carbonic anhydrase 5A, mitochondrial (Homo sapiens, UniProt P35218)
Carbonic anhydrase 14 = Carbonic anhydrase 14 (Homo sapiens, UniProt Q9ULX7)
Carbonic anhydrase 3 = Carbonic anhydrase 3 (Homo sapiens, UniProt P07451)
Carbonic anhydrase 3, sequence (P07451 whole entry): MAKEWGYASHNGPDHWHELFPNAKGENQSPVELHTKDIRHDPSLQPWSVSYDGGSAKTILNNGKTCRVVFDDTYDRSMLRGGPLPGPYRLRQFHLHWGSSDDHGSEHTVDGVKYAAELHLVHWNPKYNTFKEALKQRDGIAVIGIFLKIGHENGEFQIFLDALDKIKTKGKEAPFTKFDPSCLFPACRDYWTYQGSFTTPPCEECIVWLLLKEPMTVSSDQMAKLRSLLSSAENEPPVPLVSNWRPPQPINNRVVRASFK

Carbonic anhydrase 13, sequence (Q9D6N1 whole entry): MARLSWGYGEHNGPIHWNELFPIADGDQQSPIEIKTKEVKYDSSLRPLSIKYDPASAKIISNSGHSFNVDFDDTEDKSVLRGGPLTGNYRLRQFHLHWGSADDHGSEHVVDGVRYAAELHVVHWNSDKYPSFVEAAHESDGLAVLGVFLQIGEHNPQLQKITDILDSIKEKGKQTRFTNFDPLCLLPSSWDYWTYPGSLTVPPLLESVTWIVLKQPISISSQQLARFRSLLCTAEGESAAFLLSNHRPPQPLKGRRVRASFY
Carbonic anhydrase 5B, mitochondrial, sequence (Q9Y2D0 whole entry): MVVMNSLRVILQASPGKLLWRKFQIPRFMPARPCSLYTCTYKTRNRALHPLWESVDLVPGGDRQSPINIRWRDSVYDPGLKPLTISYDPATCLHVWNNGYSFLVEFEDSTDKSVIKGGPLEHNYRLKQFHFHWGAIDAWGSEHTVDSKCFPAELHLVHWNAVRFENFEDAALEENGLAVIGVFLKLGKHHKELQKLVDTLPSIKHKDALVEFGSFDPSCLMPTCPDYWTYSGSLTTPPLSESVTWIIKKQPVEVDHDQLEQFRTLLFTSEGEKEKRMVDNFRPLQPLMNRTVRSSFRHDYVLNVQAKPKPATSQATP
Carbonic anhydrase 14, sequence (Q9ULX7 whole entry): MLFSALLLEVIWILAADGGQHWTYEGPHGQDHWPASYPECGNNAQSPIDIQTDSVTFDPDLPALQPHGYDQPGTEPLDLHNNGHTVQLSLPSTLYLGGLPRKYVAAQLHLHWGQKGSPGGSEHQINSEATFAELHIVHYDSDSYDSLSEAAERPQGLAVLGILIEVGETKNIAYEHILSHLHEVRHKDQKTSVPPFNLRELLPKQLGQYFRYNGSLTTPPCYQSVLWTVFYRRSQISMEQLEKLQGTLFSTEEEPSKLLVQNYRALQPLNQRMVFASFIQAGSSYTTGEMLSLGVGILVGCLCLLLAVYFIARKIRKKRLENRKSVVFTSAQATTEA
Carbonic anhydrase 4, sequence (P22748 whole entry): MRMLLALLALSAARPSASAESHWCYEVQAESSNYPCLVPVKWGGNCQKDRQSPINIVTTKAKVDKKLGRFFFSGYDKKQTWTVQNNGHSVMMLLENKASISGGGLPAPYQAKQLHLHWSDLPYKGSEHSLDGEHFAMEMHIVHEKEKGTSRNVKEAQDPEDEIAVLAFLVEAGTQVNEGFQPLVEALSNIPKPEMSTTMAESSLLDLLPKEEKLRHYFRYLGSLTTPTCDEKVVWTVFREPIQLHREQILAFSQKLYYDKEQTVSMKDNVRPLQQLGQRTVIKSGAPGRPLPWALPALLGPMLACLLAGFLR
Carbonic anhydrase 5A, mitochondrial, sequence (P35218 whole entry): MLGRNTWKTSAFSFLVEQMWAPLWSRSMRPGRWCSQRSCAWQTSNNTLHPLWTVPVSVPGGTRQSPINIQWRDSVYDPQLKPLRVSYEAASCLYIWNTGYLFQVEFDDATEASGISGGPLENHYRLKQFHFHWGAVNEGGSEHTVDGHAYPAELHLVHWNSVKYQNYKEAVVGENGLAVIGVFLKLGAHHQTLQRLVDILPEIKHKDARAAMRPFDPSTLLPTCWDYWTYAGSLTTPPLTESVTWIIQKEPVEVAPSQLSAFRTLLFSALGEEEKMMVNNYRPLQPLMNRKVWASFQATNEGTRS

Ki (Carbonic anhydrase 4) [nM] | Ki (Carbonic anhydrase 13) [nM] | Ki [1] [nM] | Ki [2] [nM] | Ki (Carbonic anhydrase 14) [nM] | Ki (Carbonic anhydrase 3) [nM] | Compound
3950 | 10 | – | – | – | – | CCNC1CN(CCCOC)S(=O)(=O)c2sc(S(N)(=O)=O)cc21 (single isomer, unassigned) [BRINZOLAMIDE]
– | 1450 | 91 | 81 | 1540 | 630000 | NS(=O)(=O)c1cc(Cl)c(Cl)c(S(N)(=O)=O)c1 [DICHLORPHENAMIDE]
